Molecular target: STAT3 (Homo sapiens, UniProt P40763)
Experiment: fluorescence polarization competition, single concentration […]
Type: binding
Settings: read-out: % inhibition at 500 μM

STAT3, sequence (P40763 2-770): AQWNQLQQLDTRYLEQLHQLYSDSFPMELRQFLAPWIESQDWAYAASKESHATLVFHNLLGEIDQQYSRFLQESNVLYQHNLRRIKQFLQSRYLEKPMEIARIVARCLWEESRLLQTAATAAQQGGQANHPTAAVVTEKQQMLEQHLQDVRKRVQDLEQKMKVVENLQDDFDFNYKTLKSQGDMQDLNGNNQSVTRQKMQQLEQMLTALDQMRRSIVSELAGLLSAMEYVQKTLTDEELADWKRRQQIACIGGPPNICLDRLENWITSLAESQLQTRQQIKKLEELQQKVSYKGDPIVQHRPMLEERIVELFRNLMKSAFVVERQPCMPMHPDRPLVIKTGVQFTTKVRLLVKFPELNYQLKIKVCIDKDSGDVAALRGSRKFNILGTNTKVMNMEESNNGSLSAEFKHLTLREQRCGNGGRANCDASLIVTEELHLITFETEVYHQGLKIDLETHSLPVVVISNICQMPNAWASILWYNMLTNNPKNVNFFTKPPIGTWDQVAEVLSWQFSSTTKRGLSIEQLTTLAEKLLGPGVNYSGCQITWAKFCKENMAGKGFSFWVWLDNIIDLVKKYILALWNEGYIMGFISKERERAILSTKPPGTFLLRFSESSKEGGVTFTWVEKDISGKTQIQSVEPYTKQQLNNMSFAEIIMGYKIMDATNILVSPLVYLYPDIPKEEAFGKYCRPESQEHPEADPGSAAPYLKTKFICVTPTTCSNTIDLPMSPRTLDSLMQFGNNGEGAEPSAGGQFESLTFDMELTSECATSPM

inhibition at 500 µM	SMILES
> 50%	NS(=O)(=O)c1cccc2c1C(=O)C=C(SCCO)C2=O [PD11, 6-((2-Hydroxyethyl)thio)-5,8-dioxo-5,8-dihydronaphthalene-1-sulfonamide]
> 50%	O=C1C=C(SCCO)C(=O)c2c(O)cccc21 [PD10, 8-Hydroxy-2-((2-hydroxyethyl)thio)naphthalene-1,4-dione]

— article PMC4304211 (Bioorganic & medicinal chemistry, 2013)
